Experimental findings from US11299472B2, “Fumarate salt of (R)-3-(1-(2,3-dichloro-4-(pyrazin-2-yl)phenyl)-2,2,2- trifluoroethyl)-1-methyl-1-(1-methylpiperidin-4-yl) urea, methods of preparation, and uses thereof” (Helsinn Healthcare SA, priority 2017, dated 2022) are described below.

For orientation: bioavailability means the share of a dose that reaches the circulation, judged against a reference dose that is usually intravenous. One may read the AUC(0-t) as the area under the concentration-time curve up to a stated or last time point. The term Cmax denotes the peak of the concentration-time curve. A word on the Tmax: it is the time at which the peak concentration occurs.

Data set [1] in a line: Rat pharmacokinetic study, single oral HM04 fumarate salt 3, 10, 30 mg/kg (Example 10). The conditions noted are these: male, Sprague Dawley, plasma, 3 mg/kg intravenous, four rats, read-out: mean AUC following intravenous administration. Type of data set: in vivo.
Data set [2] can be described thus: Dog pharmacokinetic study, HM04 free base vs HM04 fumarate salt (Example 9). Type of data set: in vivo, male Beagle dogs. Here is the method:
The pharmacokinetics of HM04 in plasma of male Beagle dogs dosed with a single oral administration of 2 mg/kg HM04 formulated in a solution of 10% DMAC, 6% Solutol, and 84% PBS using either the HM04 free base or HM04 fumarate salt were compared. A comparison of the plasma concentration of HM04 (ng/mL) over time in dogs dosed orally with HM04 free base and HM04 fumarate salt is provided in FIG. 18. Bioavailability was calculated from a dose normalized ratio of the oral mean AUC to the intravenous mean AUC (AUCpo/AUCiv×Doseiv/Dosepo).

Data set [3] can be described thus: Rat pharmacokinetic study, HM04 free base vs HM04 fumarate salt (Example 9). Type of data set: in vivo, male Sprague Dawley rats.
For data set [4], the system named is Snord116+/− (Het) mice and wild-type (WT) littermates. Description: Food intake after acute administration in Prader-Willi mouse model. Type of data set: in vivo. The settings on record: for cumulative food intake: fasted 16 hours. An excerpt: (§1) The effect of HM04 fumarate salt on food intake behavior and glucose tolerance was investigated in the Snord116+/−(Het) mouse genetic model of Prader-Willi syndrome (Het mouse) compared to wild-type (WT) littermates. Since D2R agonists suppress food intake, the FDA approved D2R agonist cabergoline was used as an experimental control. Phenotypic characteristics of this PWS mouse model include hyperphagia, postnatal growth retardation, high ghrelin, and low growth hormone. Ding F., et al. SnoRNA Snord116 (Pwcr1/MBII-85) deletion causes growth deficiency and hyperphagia in mice. PloS one. 2008; 3(3):e1709. These PWS mice eat more frequently than WT littermates, particularly during the light cycle and are more motivated to work for food (more level presses) (data not shown).
Acute administration: Mice (3-, 7-, and 12-month-old) were fasted for 16 hours and then administered a single intraperitoneal injection of vehicle or vehicle containing HM04, cabergoline, or HM04 and cabergoline according to Table 8, below.
HM04 was dissolved in water for injection and cabergoline was dissolved in DMSO to provide a 5% DMSO/water solution for injection. Mice were then given free access to food, and cumulative food intake was measured at 1, 2, 4, 8, 12, and 24 hours post-dosing. […] Data was analyzed for significance using 2-way ANOVA, Bonferroni post hoc test (Graphpad Prism, Prism 5.0, San Diego, Calif.).

Data set [5] shares this test system. Nature of the data set: Glucose tolerance in Prader-Willi mouse model. Type of data set: in vivo.
Source text: as §1

For data set [6], the system named is ghrelin-induced increase of GH. Nature of the data set: Ghrelin-induced increase of growth hormone in rats. Type of data set: in vivo. The settings on record: 30 mg/kg HM04 fumarate salt p.o. 2 hours before 15 μg/kg ghrelin i.v., 15 minutes after ghrelin. Here is the method:
Rats were divided into four groups: 1) 1 ml/kg saline plus 10 ml/kg 0.5% CMC p.o. (n=6); 2) 15 μg/kg ghrelin i.v. plus 10 ml/kg 0.5% CMC p.o. (n=6); 3) 30 mg/kg HM04 fumarate salt p.o. 2 hours before 15 μg/kg ghrelin i.v. (n=6); 4) 10 mg/kg ghrelin antagonist R011 i.p. 30 minutes before 15 μg/kg ghrelin i.v. (n=6). Blood was collected as 100 μl samples at time 0 and at 15 minutes after ghrelin injection. Rats were anesthetized with 64.8 mg/kg sodium pentobarbital. A catheter filled with heparinized saline solution was inserted in the left femoral artery for blood collection and fitted with an extension tube, 1-mL sampling syringe, and a 3-way cock to allow excess blood to return.
Plasma levels of growth hormone (GH) were determined using Rat GH ELISA (Millipore, Catalog No. EZRMGH-45K). Measurements were performed in duplicate. […] One-way and two-way ANOVA test was used to compare differences between groups. All values are presented as mean±SEM. One-way ANOVA was performed followed by Turkey's post hoc test where significance was indicated by p values<0.05 or p values<0.01.

In data set [7] the test system is Snord116+/− (Het) mice and wild-type (WT) littermates. Nature of the data set: Food intake and body weight after daily administration in Prader-Willi mouse model. It is filed as in vivo.
Source text: as §1
Food intake and body weight were measured daily.

The next data set has as its target T1, human GHSR1a receptor (Homo sapiens, UniProt Q92847).
T1 construct: expressed in transfected cells; host or cells: HEK293
Nature of the data set: Inositol 1 phosphate (IP-1) inverse agonist assay. It is filed as cell-based. The settings on record: IP-1 assay. Here is the method: The compounds were diluted with 100% DMSO to make 30 mM stock. On the test day, serial dilutions were prepared starting from the stock solution. For the FLIPR assay: 1) 8 μl of DMSO was added to 2 μl of compound stock solution (30 mM) to produce 10 μl of 6 mM solution; half-fold serial dilutions of the 6 mM solution were produced to generate ten doses; 2) test solutions were obtained by diluting the stock solutions 1/40 in assay buffer (DMSO concentration 2.5%). For the IP-1 assay: 1) 29 μl of DMSO was added to 1 μl of compound stock solution (30 mM) to produce 30 μl of 1 mM solution; half-fold serial dilutions of the 1 mM solution were produced to generate 10 doses; 2) test solutions were obtained by diluting the stock solutions 1/100 in assay buffer (DMSO final concentration 1%).
For the inverse agonist activity study, the same procedure described above was followed up to the day of the test. On the test day, the medium was removed by centrifuging at 700 rpm for 30 seconds and 20 μl/well of assay buffer containing the HM04 or R011 was added. The assay plates were incubated at 37° C. in the dark for 1 hour. IP1-d2 (5 μl) and AB-Cryp (5 μl) were sequentially added to all wells using multidrop Combi. The plate was incubated at room temperature for 1 hour and read on EnVision at 620 nm and 665 nm.

The mark [8] stands for this setting: male, Beagle, plasma, 2 mg/kg oral, mean ± S.D., n=3.
The mark [9] stands for this setting: 6-month-old Het mice, HM04 10 mg/kg i.p. daily at 07.00 hours for 10 days.
[10] abbreviates: 6-month-old WT mice, HM04 10 mg/kg i.p. daily at 07.00 hours for 10 days.
Setting [11] is: 8-month-old Het mice, HM04 30 mg/kg oral daily at 07.00 hours for 5 days.
Where [12] appears, read: 8-month-old Het mice, HM04 30 mg/kg oral daily at 18.00 hours for 5 days.
The mark [13] stands for this setting: 8-month-old WT mice, HM04 30 mg/kg oral daily at 07.00 hours for 5 days.

T1 sequence (Q92847 whole entry): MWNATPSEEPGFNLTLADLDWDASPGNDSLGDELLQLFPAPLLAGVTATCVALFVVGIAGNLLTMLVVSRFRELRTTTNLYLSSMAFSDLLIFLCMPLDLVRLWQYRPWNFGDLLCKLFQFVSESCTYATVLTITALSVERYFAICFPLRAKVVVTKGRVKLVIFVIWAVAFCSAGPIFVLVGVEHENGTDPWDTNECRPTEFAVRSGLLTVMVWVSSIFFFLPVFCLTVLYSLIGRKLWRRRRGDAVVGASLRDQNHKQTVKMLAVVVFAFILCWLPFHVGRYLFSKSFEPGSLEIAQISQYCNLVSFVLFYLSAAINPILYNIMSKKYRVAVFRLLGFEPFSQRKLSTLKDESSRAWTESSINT

Consider `CN1CCC(N(C)C(=O)N[C@H](c2ccc(-c3cnccn3)c(Cl)c2Cl)C(F)(F)F)CC1.O=C(O)/C=C/C(=O)O` [HM04 fumarate salt, (R)-3-(1-(2,3-dichloro-4-(pyrazin-2-yl)phenyl)-2,2,2-trifluoroethyl)-1-methyl-1-(1-methylpiperidin-4-yl)urea fumarate salt], for which the AUC in data set [1] is 1760 ± 196 ng·h/mL; in data set [3] (male, Sprague Dawley, plasma, 3 mg/kg intravenous, three rats, read-out: mean AUC following intravenous administration), 2100 ± 358 ng·h/mL. The HM04 plasma concentration in data set [2] (2 mg/kg oral, 0.25 hours, mean ± S.D., n=3) was found to be 86.6 ± 32.2 ng/mL; in data set [2] (2 mg/kg oral, 0.50 hours, mean ± S.D., n=3), 182.4 ± 24.1 ng/mL; in data set [2] (2 mg/kg oral, 2 hours, mean ± S.D., n=3), 219.0 ± 63.6 ng/mL; in data set [3] (3 mg/kg oral, 0.25 hours, mean ± S.D., n=3), 107.8 ± 27.8 ng/mL; in data set [3] (3 mg/kg oral, 4 hours, mean ± S.D., n=3), 108.3 ± 38.3 ng/mL. Besides, the bioavailability in data set [2] (male, Beagle, plasma, 2 mg/kg oral vs 1 mg/kg intravenous, dose normalized AUC ratio) stood at 82.3 ± 36.8%; in data set [3] (male, Sprague Dawley, plasma, 3 mg/kg oral vs 3 mg/kg intravenous mean AUC), 46.1 ± 6.99%. In data set [2] (setting [8]), the AUC(0-t) was determined as 1850 ± 828 ng·h/mL. For the same compound, the Cmax in data set [2] (setting [8]) amounted to 230 ± 57.1 ng/mL; in data set [3] (male, Sprague Dawley, plasma, 3 mg/kg oral, mean ± S.D., n=3), 329 ± 185 ng/mL. The time of peak concentration (Tmax) in data set [2] (setting [8]) amounted to 1.33 ± 0.58 h.
In the case of `CN1CCC(N(C)C(=O)N[C@H](c2ccc(-c3cnccn3)c(Cl)c2Cl)C(F)(F)F)CC1` [HM04, (R)-3-(1-(2,3-dichloro-4-(pyrazin-2-yl)phenyl)-2,2,2-trifluoroethyl)-1-methyl-1-(1-methylpiperidin-4-yl)urea], the cumulative food intake entry in data set [4] (3-month-old Het mice, HM04 10 mg/kg single i.p.) was “significantly suppressed food intake at 12 and 24 hours post-dosing”; in data set [4] (3-month-old WT mice, HM04 10 mg/kg single i.p.) it was “failed to inhibit food intake”; in data set [4] (7-month-old Het mice, HM04 10 mg/kg single i.p.), “did not inhibit food intake”; in data set [4] (7-month-old WT mice, HM04 10 mg/kg single i.p.) it was “did not inhibit food intake”. In addition, the food intake result is on record as “inhibited food intake for up to 8 hours” in data set [4] (7-month-old Het mice, HM04 30 mg/kg single i.p.); “no apparent effect on food intake” in data set [4] (7-month-old WT mice, HM04 30 mg/kg single i.p.); “suppressed food intake” in data set [4] (12-month-old Het mice, HM04 10 mg/kg single i.p., 1 hour after dosing); “that level of inhibition was not maintained” in data set [4] (12-month-old Het mice, HM04 10 mg/kg single i.p., after 1 hour (up to 24 hours)); “did not reduce food intake” in data set [4] (12-month-old WT mice, HM04 10 mg/kg i.p.); “no apparent effect” in data set [7] (setting [9]). In addition, the food intake result was “no apparent effect” in data set [7] (setting [10]); “significant decrease in food intake was observed by day 2, but not on subsequent days” in data set [7] (setting [11]); “No reduction in food intake” in data set [7] (setting [13]). Besides, the glucose tolerance entry in data set [5] (Het mice) is recorded as “did not show an improvement in glucose tolerance”; in data set [5] (WT mice), “an effect was observed”. In addition, in data set [6], the “inhibition of ghrelin-induced increase of GH” value is recorded as 35%. Moreover, the body weight entry is given as “no apparent effect” in data set [7] (setting [9]), “no apparent effect” in data set [7] (setting [10]), “unaffected” in data set [7] (setting [11]) and “No reduction in food intake or body weight” in data set [7] (setting [13]). Moreover, the “food consumption during the dark cycle” value is recorded as “suppression of food consumption was not observed” in data set [7] (setting [12]) and “suppression of food consumption was not observed” in data set [7] (8-month-old WT mice, HM04 30 mg/kg oral daily at 18.00 hours for 5 days). Further, the “food intake during the subsequent light cycle (06.00-18.00)” value in data set [7] (setting [12]) is “food intake was lower in HM04-treated Het mice, but not WT mice on days 2, 3, 4, and 5 and reached significance on day 5”. Further, the inverse agonist activity result on human GHSR1a receptor is “did not show a clear significant inverse agonist activity”.
